Reference: patent US20260199484A1, “PROTAC DEGRADERS OF MLLT1 AND/OR MLLT3” (DARK BLUE THERAPEUTICS LTD, priority 2024, published 2026)

Columns and labels:
MV4-11 cells = experiment: MV4-11 cellular proliferative assay, Assay Format B (CTG 2.0, 168 h); format: cell-based; conditions: Homo sapiens, Assay Method B, Table 7, read-out: MV4-11 Antiproliferation IC50
Summary of the method: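 Cells seeded at 600/well in IMDM + 10% FBS, incubated overnight, then exposed 168 h (7 days) at 37 °C to 10 concentrations, 3-fold dilutions from 1 uM or 100 nM top dose (0.3% DMSO final). Viability by CTG 2.0 luminescence as % of DMSO control; curves fitted by four-parameter logistic regression.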

MLLT1 = molecular target: T1, MLLT1 (Homo sapiens, UniProt Q03111); experiment: MLLT1 DC50 and Dmax determination in MV4-11 cells (JESS, 4 h); format: cell-based; design: endogenous in cells; host or cells: MV4-11 (ATCC CRL-9591); conditions: MLLT1 degradation
T1 sequence (Q03111 1-559): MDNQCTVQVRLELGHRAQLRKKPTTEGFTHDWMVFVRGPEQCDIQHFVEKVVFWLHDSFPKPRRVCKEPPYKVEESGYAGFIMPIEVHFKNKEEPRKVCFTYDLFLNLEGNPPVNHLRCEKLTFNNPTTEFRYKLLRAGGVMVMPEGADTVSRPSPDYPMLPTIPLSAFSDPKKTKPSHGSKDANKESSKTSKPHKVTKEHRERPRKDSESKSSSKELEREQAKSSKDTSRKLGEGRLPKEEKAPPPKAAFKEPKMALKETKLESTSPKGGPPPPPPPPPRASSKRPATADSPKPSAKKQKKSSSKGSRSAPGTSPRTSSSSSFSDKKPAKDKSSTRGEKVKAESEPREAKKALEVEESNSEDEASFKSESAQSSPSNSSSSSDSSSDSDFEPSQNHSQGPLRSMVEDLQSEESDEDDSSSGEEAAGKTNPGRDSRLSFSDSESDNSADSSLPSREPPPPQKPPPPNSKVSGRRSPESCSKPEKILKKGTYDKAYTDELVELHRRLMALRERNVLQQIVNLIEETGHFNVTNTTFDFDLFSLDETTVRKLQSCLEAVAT
Description: MLLT1 degradation efficacy of compounds was tested in an automated chemiluminescent detection system (JESS, Cat #004-650). MV4-11 (#CRL-9591, ATCC) were seeded at a density of 1.2 million cells/well in a non-treated 6-well cell culture plate in 2.4 mL of complete medium (IMDM+10% FBS+1× Penicillin-Streptomycin). 10 mM DMSO stocks were prepared, and cells were treated with eight concentrations of test compounds, starting from 100 nM, 5-fold dilution, at a final DMSO concentration of 0.1% and incubated for 4 h at 37° C., 5% CO2. Post incubation, cells were centrifuged, washed with HBSS and lysed in 60 μL of RIPA buffer supplemented with Protease inhibitors (sc-24948; Santa Cruz). Protein estimation was done using BCA protein assay kit (23228; Pierce). 4 gg protein lysate (4 μL of 1 μg/μL lysate) was loaded into each well of the JESS cartridge (SM-W004; Bio-techne) and the JESS run was performed using 1:900 dilution of anti-human MLLT1 antibody (ABE2596; Merck) and 1:1200 dilution of anti-human GAPDH antibody (2118; Cell signaling technology) with anti-rabbit secondary detection module (DM-001; Bio-Techne). Post run, data was analysed using “Compass for SW” software for chemiluminescent detection. Peak fit was done using “dropped lines” method. Peak area for MLLT1 and GAPDH was used for the calculation of MLLT1 degradation with respect to DMSO control. Data was shown as “% degradation”. % Degradation was plotted against the respective doses (test compound concentration) and dose-response curve (DRC) was generated using four-parameter logistic equation (non-linear regression). Following parameters for each DRC was captured: DC50 (concentration in nM at which degradation is 50%, interpolated from standard curve and transformed to linear scale), Dmax (maximum % degradation observed). DC50 and Dmax data are captured in Table 7 for Example 1 and Example 110, which is a comparative example.

Structure (SMILES): Cc1nn(CCCCCCCC#Cc2cccc3c2CN(C2CCC(=O)NC2=O)C3=O)c2cc(C(=O)Nc3cc4[nH]c(CN5CCCC5)cc4cn3)ccc12 (stereo not drawn) [Example 110, 1-(9-(2-(2,6-dioxopiperidin-3-yl)-1-oxoisoindolin-4-yl)non-8-yn-1-yl)-3-methyl-N-(2-(pyrrolidin-1-ylmethyl)-1H-pyrrolo[3,2-c]pyridin-6-yl)-1H-indazole-6-carboxamide]
- IC50 (MV4-11 cells): > 1000 nM
- DC50 (MLLT1): 41 nM
- Dmax (MLLT1; maximum % degradation observed): 58%
